# Measured values as given in patent publication US9284366B2, “Anti-acetylated huntingtin antibodies and uses therof” (The General Hospital Corporation, priority 2006, dated 2016).
# Experiments:
# [1] = system: total Htt and acetyl-Htt level in Neuro2a cells; assay: Proteasome and autophagy inhibitors in Neuro2a cells transfected with Htt590-97Q (western blot); assay type: cell-based; details: lactacystin 10 μM or 3-methyladenine 10 mM for 12 hrs
# Description: Cell Culture and Transfection. Neuro2a, STHdh^Q7/Q7, and COS-7 cells were transfected using Lipofectamine 2000. For HDAC inhibition, TSA (1 μM) and NAM (5 mM) were applied 6 hrs and 16 hrs, respectively, prior to harvest. Unless indicated otherwise, cells were harvested 24 hrs after transfection. For the experiments with proteasome and autophagy inhibitors, Neuro2a cells were treated with lactacystin (10 μM) or 3-methyladenine (10 mM) for 12 hrs. For assessment of LC3 conversion, immortalized striatal cells (STHdh^Q7/Q7) were cultured as described (29), transfected for 48 hrs and treated with TSA (4 μM) and NAM (5 mM) 15 hrs prior to harvest.
# To examine which of these pathways may be responsible for clearance of acetylated Htt polypeptide, Neuro2a cells were transfected with Htt590-97Q and treated with inhibitors of proteasome or autophagy. […] In order to further examine whether acetylated Htt polypeptide leads to activation of macroautophagy, LC3 conversion was assessed (17, 18). LC3, a mammalian homologue of yeast Atg8, is a diffusely distributed protein that upon activation by mammalian Atg7 undergoes posttranslational modification resulting in the product LC3-II, which firmly associates with the autophagosomal membrane. The amount of LC3-II, which migrates faster than LC3-I on SDS-PAGE, provides a reliable measure of autophagic activity (17). In order to assess autophagic activity in relation to Htt acetylation, immortalized striatal cells (STHdh^Q7/Q7) were transfected with Htt590-97Q or acetylation-resistant Htt590-97Q-KR, treated with TSA and NAM and analyzed by western blotting with anti-LC3 antibody (FIG. 3B).
# Drosophila model of HD = details: pharmacological inhibition of HDAC; cited from earlier work
# C. elegans neurons = details: dose-dependent manner; cited from earlier work
structure (smiles),measurement,setting,value
Cn1cnc(N)c2ncnc1-2 [3-methyladenine],acetyl-Htt level,[1],accumulation
"O=C(CCCCCCC(=O)Nc1ccccc1)NO [SAHA, Suberoylanilide hydroxamic acid]",lethality and degeneration in Drosophila model of HD,Drosophila model of HD,rescue the lethality and degeneration
CC(=O)N[C@@H](CSC(=O)[C@]1([C@@H](O)C(C)C)NC(=O)[C@H](C)[C@@H]1O)C(=O)O [lactacystin],acetyl-Htt level,[1],no significant effect
same,total Htt level,[1],no significant effect
"CC(/C=C/C(=O)NO)=C\[C@@H](C)C(=O)c1ccc(N(C)C)cc1 [TSA, trichostatin A]",degeneration of C. elegans neurons induced by mutant Htt,C. elegans neurons,reduced the degeneration
